Values joined by “and” are separate entries in the source; they are usually repeats but may differ in a detail not shown here. Equal entries are not always repeated.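 Cultured in 96-well plates, cells were exposed to test compound for 48 hours across five concentrations. GI50: concentration for 50% inhibition of growth. Definition used: TGI = concentration required for complete inhibition of growth.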
How the values were obtained:
Test in all cases: inhibition of tumour cell growth, NCI panel, 48 h
[1] = tested on: 786-0 renal
[2] = tested on: COLO 205 colon
[3] = tested on: HOP-92 NSCLC
[4] = tested on: MCF7 breast
[5] = tested on: OVCAR-5 ovarian
[6] = tested on: RPMI-8226 leukemia
[7] = tested on: SK-MEL-5 melanoma
[8] = tested on: UACC-62 melanoma

Structure (SMILES)	GI50 [1]	TGI [1]	GI50 [2]	TGI [2]	GI50 [3]	TGI [3]	GI50 [4]	TGI [4]	GI50 [5]	TGI [5]	GI50 [6]	TGI [6]	GI50 [7] [µM]	TGI [7] [µM]	GI50 [8]	TGI [8]
Cc1ccc(F)c(NC(=O)Nc2ccc(-c3cccc4[nH]nc(N)c34)cc2)c1	3.58 µM and 4.22 µM	18 µM and > 10 µM	2.21 µM and 2.27 µM	4.32 µM and 4.9 µM	3.67 µM and 3.17 µM	14.4 µM and 8.25 µM	2.29 µM and 2.07 µM	8.4 µM and > 10 µM	2.74 µM and 3.42 µM	9.11 µM and > 10 µM	2.27 µM and 2.39 µM	6.11 µM and 6.27 µM	2.88	8.56	3.27 µM and 4.2 µM	11.7 µM and > 10 µM
Oc1cc(N2CC2)c(O)cc1N1CC1	0.742 µM	4.69 µM	1.02 µM	2.21 µM	2.33 µM	7.9 µM	0.387 µM	4.21 µM	1.88 µM	9.93 µM	1.53 µM	9.74 µM	0.874	2.99	0.918 µM	2.91 µM
Cc1ccc([Se](=C(C(=O)c2ccccc2)C(=O)c2ccccc2)c2ccc(C)cc2)cc1		> 100 µM		43.4 µM		53.4 µM		> 100 µM		> 100 µM		22.4 µM		37.2		51.5 µM
CC1(C)CC(=O)C=C(/C=C/Sc2c(Cl)c(Cl)nc(Cl)c2Cl)C1	3.92 µM	15.2 µM	17.2 µM	31.3 µM	16.7 µM	35.2 µM	2.47 µM	8.05 µM	14.5 µM	29.7 µM	3.41 µM	75.1 µM	11.8	24.4	8.48 µM	20.8 µM
COC(=O)C12CCC(C)(C)CC1C1=CCC3C4(C)CC(O)C(O)C(C)(C(=O)OC)C4CCC3(C)C1(CO)CC2 (stereo unspecified)		23.3 µM		29.1 µM		29.1 µM		29.8 µM		31.8 µM		40.9 µM		41.3		28.9 µM
O=C(/C=C/C12c3ccccc3C(c3ccccc31)C1C(=O)N(c3ccc(Cl)cc3)C(=O)C12)c1ccccn1 (stereo unspecified)	0.194 µM	0.398 µM	0.49 µM	1.13 µM	0.452 µM	1.11 µM	0.313 µM	> 23 µM	0.309 µM	1.14 µM	0.234 µM	0.682 µM	0.515	1.21	0.279 µM	0.973 µM
O=C1/C(=C/c2ccc([N+](=O)[O-])s2)Oc2cc(Cl)ccc21	2.9 µM	7.35 µM			0.631 µM	2.53 µM	0.944 µM	> 100 µM			0.382 µM	2.23 µM	1.2	2.57	0.998 µM	3.14 µM
CC(=O)OCC12CN(C#N)C3C4COC(CC41)C1(C(=O)N(C)c4ccccc41)C32 (stereo unspecified)		> 100 µM		35.8 µM		52.4 µM		41.4 µM		> 100 µM		> 100 µM		86.3		52.2 µM
[O-]/N=[N+](/[O-])C1CCCCC1=[N+]1CCOCC1 (stereo unspecified)		> 100 µM		> 100 µM		> 100 µM				> 100 µM		> 100 µM				> 100 µM

Reference: PubChem BioAssay (NCI)
